# Source: patent publication US11617777B2, “Cytotoxic and anti-mitotic compounds, and methods of using the same” (ZYMEWORKS BC INC., priority 2013, dated 2023)
# Where two headings read alike, the source gives them in different places.
# What was measured:
# Jurkat cells [1] = experiment: Cytotoxicity assay of SMCC- and LC-SPDP-linked ADCs and free compounds; assay type: cell-based; settings: Homo sapiens
# Procedure: (§1) The purified ADCs were then analysed for: total protein content (BCA assay, Pierce microBCA protocol), relative affinity for antigen binding (equilibrium native binding), and selective cytotoxic killing of HER2-positive cells (HCC1954) compared HER2-negative cells (Jurkat).
# (§2) On the day prior to adding test articles, HCC1954 cells were added to opaque-walled 96-well tissue culture-treated microtiter plates using complete growth medium at a density of 2500 cells/100 microlitre (uL) of medium. The HCC1954 cells were incubated for one night at 37° C./5% CO2 to allow the cells to attach to the microtiter plate surface. On the day that test articles were added, Jurkat cells are added to separate 96-well microtiter plates at 2500 cells/100 uL using the same growth medium as HCC1954. To compare the ADC killing to that obtained from the free-compounds, the n-acyl sulfonamide compounds were first serially diluted using dimethyl sulfoxide or DMA, and then the prepared dilutions are added to complete growth medium at five-times the final concentration—compounds were then titrated 1:3, eight steps. To test the ADCs, they were diluted directly in growth medium at five-times the final concentration—ADCs were then titrated 1:3, eight steps. A control with no test article present (growth medium alone) was included on each microtiter plate in sextuplicate. The prepared compound/ADC titrations were added (twenty-five uL/well) in triplicate to both the HCC1954 cells and Jurkat cells. The cells and titrations were incubated at 37° C./5% CO2 for three nights. After the incubation, cell viability was measured using CellTiter-Glo® reagent by adding thirty uL of prepared CellTiter-Glo® to each assay well. The assay was incubated for at least twenty minutes in the dark prior to measuring emitted luminescence using a microplate luminometer (500 ms integration time). The collected relative luminescence units (RLU) were converted to % cytotoxicity using the Growth medium alone control mentioned above (% Cytotoxicity=1−[Well RLU/average medium alone control RLU]).
# HCC1954 cells [2] = experiment: as above; assay type: cell-based; settings: Homo sapiens
# Procedure: as §1, §2
# HCC1954 cells [3] = experiment: Cytotoxicity of compounds, CellTiter-Glo; assay type: cell-based; settings: Homo sapiens
# Source text: (§3) Cell lines used: Human T-cell leukemia cell line Jurkat (ATCC: TIB-152); HCC1954 (ATCC: CRL. 2338); Human Pancreatic cells lines: AsPC-1 (ATCC: CRL-1682), BxPC-3 (ATCC: CRL.1687), HPAF-II (ATCC: CRL.1997), MiaPaCa2 (ATCC: CRL.1420), PANC-1 (ATCC: CRL.1469), Capan-1 (ATCC: HTB-79), Capan-2 (ATCC: HTB-80) and the Human gastric carcinoma cell line NCI-N87 (ATCC: CRL. 5822); AML-193 (ATCC: CRL.9589), CCRF-CEM (ATCC: CCL-119), DU145 (ATCC: HTB-81), PC-3 (ATCC: CRL.1435), A-431 (ATCC: CRL.1555), HT-29 (ATCC: HTB-38), A-172 (ATCC: CRL.1620), NCI-H358 (ATCC: CRL.5807), A549 (ATCC: CCL-185), Colo-205 (ATCC: CCL-222), MDA-MB-231 (ATCC: HTB-26), OVCAR-3 (ATCC: HTB-161), OV-90 (ATCC: CRL.11732), OE19 (Sigma: 96071721), RT 112/84 (Sigma: 85061106).
# (§4) On the day prior to adding compounds, HCC1954 AsPC-1, BxPC-3, HPAF-II, MiaPaCa2, PANC-1, Capan-1, Capan-2 and NCI-N87 cells were added to opaque-walled 96-well tissue culture-treated microtiter plates using complete growth medium at a density of 2500 cells/100 microlitre (uL) of medium. These adherant cell lines cells were incubated for one night at 37° C./5% CO2 to allow the cells to attach to the microtiter plate surface. On the day that compounds were added, Jurkat cells are added to separate 96-well microtiter plates at 2500 cells/100 uL using the same growth medium as HCC1954. Compound were first serially diluted using dimethyl sulfoxide, and then the prepared dilutions are added to complete growth medium at five-times the final concentration—compounds were then titrated 1:3, eight steps. A control with no compound (growth medium alone) was included on each microtiter plate in sextuplicate. The prepared compounds titrations were added (twenty-five uL/well) in triplicate. The cells and compound titrations were incubated at 37° C./5% CO2 for three nights. After the incubation, cell viability is measured using CellTiter-Glo® reagent by adding thirty uL of prepared CellTiter-Glo® to each assay well. The assay is incubated for at least twenty minutes in the dark prior to measuring emitted luminescence using a microplate luminometer (500 ms integration time). The collected relative luminescence units (RLU) are converted to % cytotoxicity using the Growth medium alone control mentioned above (% Cytotoxicity=1−[Well RLU/average medium alone control RLU]).
# (§5) GraphPad Prism was used for generation of EC50 values using three parameter non-linear regression curve fitting.
# Jurkat cells [4] = experiment: Cytotoxicity of compounds, CellTiter-Glo; assay type: cell-based, Human; settings: Homo sapiens, Jurkat
# Procedure, shortened: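 HCC1954 plated at 2500 cells/100 uL and attached overnight; Jurkat plated at 2500 cells/100 uL on the day of dosing. Cells exposed to 8-step 1:3 compound titrations for three nights at 37° C./5% CO2, in triplicate. CellTiter-Glo luminescence converted to % cytotoxicity versus medium-only control; EC50 by three-parameter nonlinear regression.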
# MiaPaCa2 = experiment: Cytotoxicity of compounds, CellTiter-Glo; assay type: cell-based; settings: Homo sapiens
# Source text: (§6) FIG. 1 summarizes the data for compounds A, B, C, D, and E when tested using the Human mammary carcinoma cell line HCC1954 or Human T-cell leukemia cell line Jurkat. FIGS. 2-6 show the cytotoxicity data plots for individual compounds A-E. Tables 2-6 summarize the results of additional cytotoxicity assays.
# as §3, §4, §5
# Capan-1 = experiment: Cytotoxicity of compounds, CellTiter-Glo; assay type: cell-based; settings: Homo sapiens, Table 5
# Source text: as §6, §3, §4, §5
# Capan-2 = experiment: Cytotoxicity of compounds, CellTiter-Glo; assay type: cell-based; settings: Homo sapiens, Table 5
# Source text: as §6, §3, §4, §5
# BxPC-3 = experiment: Cytotoxicity of compounds, CellTiter-Glo; assay type: cell-based; settings: Homo sapiens
# Source text: as §6, §3, §4, §5
# PANC-1 = experiment: Cytotoxicity of compounds, CellTiter-Glo; assay type: cell-based; settings: Homo sapiens
# Source text: as §6, §3, §4, §5
# AsPC-1 = experiment: Cytotoxicity of compounds, CellTiter-Glo; assay type: cell-based; settings: Homo sapiens
# Source text: as §6, §3, §4, §5
# HPAF-II = experiment: Cytotoxicity of compounds, CellTiter-Glo; assay type: cell-based; settings: Homo sapiens
# Source text: as §6, §3, §4, §5
# NCI-N87 = experiment: Cytotoxicity of compounds, CellTiter-Glo; assay type: cell-based; settings: Homo sapiens
# Source text: as §6, §3, §4, §5
# OV-90 = experiment: Cytotoxicity on various cell lines; assay type: cell-based; settings: Homo sapiens, Table 8
# Source text: as §6, §3, §4, §5
# Colo-205 = experiment: Cytotoxicity on various cell lines; assay type: cell-based; settings: Homo sapiens, Table 8
# Source text: as §6, §3, §4, §5
# A-431 = experiment: Cytotoxicity on various cell lines; assay type: cell-based; settings: Homo sapiens, Table 8
# Source text: as §6, §3, §4, §5
# MDA-MB-231 = experiment: Cytotoxicity on various cell lines; assay type: cell-based; settings: Homo sapiens, Table 8
# Source text: as §6, §3, §4, §5
# HT-29 = experiment: Cytotoxicity on various cell lines; assay type: cell-based; settings: Homo sapiens, Table 8
# Source text: as §6, §3, §4, §5
# DU145 = experiment: Cytotoxicity on various cell lines; assay type: cell-based; settings: Homo sapiens, DU-145, Table 8
# Source text: as §6, §3, §4, §5
# OVCAR-3 = experiment: Cytotoxicity on various cell lines; assay type: cell-based; settings: Homo sapiens, Table 8
# Source text: as §6, §3, §4, §5
# NCI-H358 = experiment: Cytotoxicity on various cell lines; assay type: cell-based; settings: Homo sapiens, Table 8
# Source text: as §6, §3, §4, §5
# AML-193 = experiment: Cytotoxicity on various cell lines; assay type: cell-based; settings: Table 8
# Source text: as §6, §3, §4, §5
# PC-3 = experiment: Cytotoxicity on various cell lines; assay type: cell-based; settings: Homo sapiens, Table 8
# Source text: as §6, §3, §4, §5
# OE19 = experiment: Cytotoxicity on various cell lines; assay type: cell-based; settings: Homo sapiens, Table 8
# Source text: as §6, §3, §4, §5
# CCRF-CEM = experiment: Cytotoxicity on various cell lines; assay type: cell-based; settings: Homo sapiens, Table 8
# Source text: as §6, §3, §4, §5
# A-172 = experiment: Cytotoxicity on various cell lines; assay type: cell-based; settings: Homo sapiens, Table 8
# Source text: as §6, §3, §4, §5
# RT112/84 = experiment: Cytotoxicity on various cell lines; assay type: cell-based; settings: Homo sapiens, Table 8
# Source text: as §6, §3, §4, §5
# [5] = Table 10, Coupling #2, read-out: Jurkat Best-fit EC50
# [6] = HCC1954, Table 4, Cytotoxicity of Compounds on HCC-1954 Cells, read-out: EC50
# [7] = Table 2, HCC1954, read-out: HCC1954 EC50
# [8] = Table 1, Jurkat cells (HER2−), three nights, read-out: Jurkat cells (HER2−) EC50
# [9] = Table 3, Cytotoxicity of Compounds on Jurkat Cells, read-out: EC50
smiles,measurement,setting,value
"CN[C@H](C(=O)N[C@H](C(=O)N(C)[C@H](/C=C(\C)C(=O)NS(=O)(=O)CCCS)C(C)C)C(C)(C)C)C(C)(C)c1ccccc1 [Compound A, (S,E)-N-(3-mercaptopropylsulfonyl)-2,5-dimethyl-4-((S)—N,3,3-trimethyl-2-((S)-3-methyl-2-(methylamino)-3-phenylbutanamido)butanamido)hex-2-enamide]",EC50,"Jurkat cells [1]; Table 9, Coupling #1, read-out: Jurkat Best-fit EC50",1100 pM
same,EC50,Jurkat cells [1]; [5],780 pM
same,EC50,"HCC1954 cells [2]; HCC1954, Table 9, Coupling #1, read-out: HCC1954 Best-fit EC50",2100 pM
same,EC50,HCC1954 cells [3]; [6],2100 pM
same,EC50,HCC1954 cells [3]; [7],3000 pM
same,EC50,Jurkat cells [4]; [8],780 pM
same,EC50,"Jurkat cells [4]; Table 2, read-out: Jurkat EC50",5000 pM
same,EC50,Jurkat cells [4]; [9],4500 pM
"CN[C@H](C(=O)N[C@H](C(=O)N(C)[C@H](/C=C(\C)C(=O)NS(=O)(=O)Cc1ccccc1)C(C)C)C(C)(C)C)C(C)(C)c1ccccc1 [Compound 14, (S,E)-N-(benzylsulfonyl)-2,5-dimethyl-4-((S)—N,3,3-trimethyl-2-((S)-3-methyl-2-(methylamino)-3-phenylbutanamido)butanamido)hex-2-enamide]",EC50,"MiaPaCa2; MIA PaCa-2, Table 5, MinPaCa2, read-out: Cytotoxicity (EC50) MinPaCa2",204 pM
same,EC50,"MiaPaCa2; Table 8, Mia PaCa-2, read-out: (EC50)",332 pM
same,EC50,Capan-1,2080 pM
same,EC50,Capan-2,1100 pM
same,EC50,"BxPC-3; Table 5, read-out: Cytotoxicity (EC50) BxPC-3",45.8 pM
same,EC50,"BxPC-3; Table 8, read-out: (EC50)",196 pM
same,EC50,"PANC-1; Table 5, read-out: Cytotoxicity (EC50) PANC-1",1360 pM
same,EC50,"PANC-1; Table 8, read-out: (EC50)",759 pM
same,EC50,"AsPC-1; ASPC1, Table 5, read-out: Cytotoxicity (EC50) AsPC-1",206 pM
same,EC50,"AsPC-1; ASPC1, Table 8, read-out: (EC50)",334 pM
same,EC50,"HPAF-II; Table 5, read-out: Cytotoxicity (EC50) HPAF-II",172 pM
same,EC50,"HPAF-II; Table 8, read-out: (EC50)",~385 pM
same,EC50,"NCI-N87; Table 5, read-out: Cytotoxicity (EC50) NCI-N87",175 pM
same,EC50,"NCI-N87; Table 8, read-out: (EC50)",325 pM
same,EC50,OV-90,515 pM
same,EC50,Colo-205,~317 pM
same,EC50,A-431,191 pM
same,EC50,MDA-MB-231,1240 pM
same,EC50,HT-29,167 pM
same,EC50,DU145,649 pM
same,EC50,OVCAR-3,90 pM
same,EC50,NCI-H358,311 pM
same,EC50,AML-193,191 pM
same,EC50,PC-3,455 pM
same,EC50,OE19,210 pM
same,EC50,CCRF-CEM,130 pM
same,EC50,A-172,598 pM
same,EC50,RT112/84,178 pM
same,EC50,"HCC1954 cells [3]; HCC1954, Table 8, HCC-1954, read-out: (EC50)",131 pM
"CN[C@H](C(=O)N[C@H](C(=O)N(C)[C@H](/C=C(\C)C(=O)NS(=O)(=O)c1ccc(CS)cc1)C(C)C)C(C)(C)C)C(C)(C)c1ccccc1 [Compound C, (S,E)-N-(4-(mercaptomethyl)phenylsulfonyl)-2,5-dimethyl-4-((S)—N,3,3-trimethyl-2-((S)-3-methyl-2-(methylamino)-3-phenylbutanamido)butanamido)hex-2-enamide]",EC50,Jurkat cells [1]; [5],570 pM
same,EC50,"HCC1954 cells [2]; HCC1954, Table 10, Coupling #2, read-out: HCC1954 Best-fit EC50",670 pM
same,EC50,HCC1954 cells [3]; [6],1300 pM
same,EC50,"HCC1954 cells [3]; Table 1, HCC1954 cells (HER2+), three nights, read-out: HCC1954 cells (HER2+) EC50",670 pM
same,EC50,HCC1954 cells [3]; [7],1300 pM
same,EC50,Jurkat cells [4]; [8],570 pM
same,EC50,"Jurkat cells [4]; Table 2, read-out: Jurkat EC50",1900 pM
same,EC50,Jurkat cells [4]; [9],1900 pM
